Measured values from US20250319045A1, “TRANSETHOSOME-ENCAPSULATED AGENTS AND METHODS OF USE THEREOF” (Northwestern University, priority 2024, published 2025).

Key:
[1] = Encapsulation efficiency and drug loading by HPLC after ultrafiltration; format: physicochemical; conditions: Z-Endoxifen in transethosomes
Experimental: After cooling the transethosomes to room temperature, the remaining volume was 10 ml. The total drug concentration was determined by HPLC using 20 μL demulsified samples. 200 μL samples were collected into a 30 kDa ultrafiltration tube, added 1 mL of 25% ethanol, ultrafiltrated at 5000 rpm, and the drug concentration of subnatant was determined by HPLC.
Encapsulation efficiency was evaluated by HPLC. HPLC was performed using a WondaSil® C-18-WR column (4.6×150 mm, 5 μm pore size). The mobile phase included an A phase and a B phase at a ratio (A:B) of 30:70. The A phase contained 10 mM ammonium formate in water: 10 mM ammonium formate in methanol. The B phase contained 10 mM ammonium formate in methanol at a ratio of 40:60. Samples were prepared as follows. The solvent was prepared by mixing 10 mM ammonium formate in a solution containing water and acetonitrile at a ratio of 1:1 (v/v). Z-Endoxifen was diluted in the solvent at a concentration gradient of 5, 10, 25, 50, and 80 μg/mL. Samples were injected into the column at a volume of 20 μL and were passed through the column at a flow rate of 0.8 mL/min at a temperate of 30° C. The detection wavelength was 243 nm.
The following equations were used in Table 1: […]

[2] = Local tolerance and dermal toxicity test, Draize scoring; conditions: after the 7th DNCB dose (third week), 0.05% in 95% ethanol

Drug loading (%) [1] [%] | Encapsulation efficiency (%) [1] [%] | Structure (SMILES) | Erythema score (Draize) ([2]; 3 of 10 animals) | Erythema score (Draize) ([2]; remaining 7 animals)
4.77 | 92.34 | CC/C(=C(\c1ccc(O)cc1)c1ccc(OCCNC)cc1)c1ccccc1 [Z-Endoxifen, (Z)-endoxifen] |  | 
 |  | O=[N+]([O-])c1ccc(Cl)c([N+](=O)[O-])c1 [DNCB, 1-chloro-2,4-dinitrobenzene] | 2 | 1
